Results from patent US20070287680A1, “Combined Active and Passive Targeting of Biologically Active Agents” (University of Utah Research Foundation, priority 2004, published 2007).
“Also recorded” adds a separate entry of the source.

How the values were obtained:
Assay type in all cases: cell-based
[1] = target: T1, green fluorescent protein tagged-GR (GFP-GR) (Rattus norvegicus, UniProt P06536, C656G); assay: GFP-GR system, biorecognition (nuclear translocation of GFP tagged GR); settings: fluorescence microscopy, 37° C., Mce6 at 20 μM and 30 μM, images up to 30 minutes
T1 construct: expressed in transfected cells
T1 sequence (P06536 1-795 C656G): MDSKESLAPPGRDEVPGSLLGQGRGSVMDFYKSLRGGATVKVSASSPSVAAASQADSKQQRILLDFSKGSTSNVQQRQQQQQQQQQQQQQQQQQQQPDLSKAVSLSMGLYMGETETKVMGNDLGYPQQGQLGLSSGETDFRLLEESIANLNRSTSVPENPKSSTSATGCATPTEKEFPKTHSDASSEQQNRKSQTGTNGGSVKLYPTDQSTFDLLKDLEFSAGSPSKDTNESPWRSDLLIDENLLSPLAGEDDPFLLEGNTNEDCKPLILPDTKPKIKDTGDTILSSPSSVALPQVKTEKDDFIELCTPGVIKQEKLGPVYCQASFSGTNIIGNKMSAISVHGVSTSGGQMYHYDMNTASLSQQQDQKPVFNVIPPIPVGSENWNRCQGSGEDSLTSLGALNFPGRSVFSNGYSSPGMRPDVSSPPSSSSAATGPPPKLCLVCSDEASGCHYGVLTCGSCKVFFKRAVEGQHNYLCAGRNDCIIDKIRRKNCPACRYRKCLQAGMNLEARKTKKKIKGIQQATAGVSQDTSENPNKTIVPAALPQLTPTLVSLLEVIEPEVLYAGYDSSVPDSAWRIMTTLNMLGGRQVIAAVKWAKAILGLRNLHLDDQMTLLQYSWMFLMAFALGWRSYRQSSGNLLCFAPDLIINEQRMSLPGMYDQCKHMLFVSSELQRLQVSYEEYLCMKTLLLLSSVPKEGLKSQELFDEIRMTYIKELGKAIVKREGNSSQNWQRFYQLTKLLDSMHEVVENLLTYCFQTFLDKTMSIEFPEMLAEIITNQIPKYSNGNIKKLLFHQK
Procedure: This system involves the generation of GFP labeled GR in the cell. The cells are then treated with the drug and the change in the localization of the fluorescently tagged GR is followed. Cells were transfected with GFP-GR plasmids as previously. Briefly, 5×10^6 cells were transfected with 2 μg of the GFP-GR plasmid plus carrier DNA using an Electrosquare porator ECM 830 system (BTX, San Diego, Calif.). The electroporation was performed using 3 pulses each of 135 V for 10 milliseconds, […]. Cells were allowed to recover on ice for 5 minutes and were then diluted with phenol red-free DMEM with 10% charcoal stripped FBS and plated on a clear cover glass (Corning no. 1, 22 mm^2) into live cell chambers (Lab-Tek II chambered cover glass with cover). These cells were incubated in cell culture conditions for 24 hrs. […] The import of GFP-receptor-conjugate complexes was monitored using an Olympus IX701F inverted fluorescence microscope and an EGFP filter set (Chroma Technology Corp.) (exciter 480 nm, emitter 510 nm, beam splitter 495 nm). Cells were maintained at 37° C. using a Nevtek ASI 400 Air Stream Incubator (variable temperature control) attached to a temperature probe as previously. Cells were photographed using an F-View Monochrome CCD camera.

[2] = test system: nucleus (DAPI nuclear marker); assay: Confocal fluorescence microscopy, subcellular localization; settings: 24 hours incubation at 37° C.
Procedure: Subcellular localization was determined using confocal fluorescence microscopy. 150000 cells were seeded on previously sterilized glass coverslips in 35 mm dishes 24 hours before incubation with the drug. […] The cells were then fixed with 3% paraformaldehyde for 20 minutes at room temperature. DAPI (4′,6-diamidino-2-phenylindole) (600 nM) was incubated with the cells and used as a nuclear marker. The cells were mounted with SlowFade Light Antifade medium (Molecular Probes, Eugene, Oreg.) and sealed as described previously. The cells were then imaged on a Zeiss (Thornwood, N.Y.) LSM 510 confocal imaging system with an Axioplan 2 microscope (100× plan-apo objective, NA=1.4, oil) and a titanium sapphire multiphoton laser (mesochlorin, excitation 800 nm, emission 650 nm low pass filter; DAPI, excitation 800 nm, emission 461 nm band pass filter). The settings for all the confocal systems were adjusted so that control cells yielded dark images.
In these images, DAPI is represented by […] fluorescence. […] Mce6 is stained red in color. […] These two windows separately indicate the subcellular localization of Mce6 and DAPI respectively. These 2 windows are superimposed in window D to display a composite image.

[3] = test system: murine adenocarcinoma (1471.1) cells; assay: Cytotoxicity after illumination, WST-8 assay; settings: incubated 4 hours, DMEM with 10% charcoal stripped FBS, illuminated 30 min, Mce6 equivalents, read-out: IC50 (μM) (Mean ± SD)
Procedure: The IC50 (concentration that inhibits growth by 50%) was determined utilizing a WST-8 assay. Four thousand cells were seeded into 96 well plates and incubated overnight in a humidified atmosphere containing 5% CO2. […] The incubation period was 10 hours in the case of the HPMA copolymer-bound Mce6 conjugates. After the period of incubation, the media containing the drug was removed and 100 μL of fresh media was added and the cells were promptly illuminated for 30 min. The light source was three ENH Tungsten halogen lamps (120 V/250 W) placed in parallel, attenuated by three band-pass interference filters (Melles Griot Co., Carlsbad, Calif.). The light energy was approximately 2 mW cm^−2 as determined using a radiometer.
After illumination, the cells were incubated in a humidified atmosphere containing 5% CO2 for 24 hours. The media was replaced with 100 μL fresh media containing 10 μL of WST-8. After two hours incubation, the absorbance was read at 450 nm with background correction at 630 nm. Untreated cells served as 100% viable cells, whereas media served as background. Percentage of viable cells was calculated by dividing the mean absorbance of each well by the absorbance of the untreated cells. Linear regression was performed utilizing the linear portion of the growth inhibition curve to determine the IC50 dose.

GR = assay: MMTV luciferase assay; settings: data not shown
[4] = listed as Cort-Lys-Mce6 derivative

Substance | redistribution of GFP tagged GR from the cytoplasm to the nucleus ([1]; disodium salt) | subcellular localization of Mce6 fluorescence ([2]; disodium salt) | IC50 [3] [µM] | redistribution of GFP tagged GR from the cytoplasm to the nucleus [1] | redistribution of GFP tagged GR from the cytoplasm to the nucleus [1, 4] | subcellular localization of Mce6 fluorescence [2] | subcellular localization of Mce6 fluorescence [2, 4] | ability to bind the GR and induce nuclear translocation (GR)
Mesochlorin e6 monoethylene diamine disodium salt [Mce6, reference compound] | cannot cause redistribution of the GFP tagged GR; also recorded: did not induce any change in the localization of the receptors | faint Mce6 fluorescence in the nucleus; also recorded: predominantly located in the cytoplasm | 5.3 ± 0.93 | – | – | – | – | –
alpha-N-(Cortisol-C17-carbamoyl)-Lysyl-Mesochlorin ethyl amide [Cort-Lys-Mce6] | – | – | 1.96 ± 0.17 | increase in the fluorescence level in the nucleus | able to shuttle GFP tagged GR from the cytoplasm to the nucleus | located in the cytoplasm and in the nucleus | colocalization of Mce6 and DAPI | independently verified
